Experimental data as given in the supplement of paper PMC10307832.

What was measured:
Test in all cases: relative viability (nuclei count vs DMSO), 5 days (fraction); higher = more cells survive
ABC-1 = system: ABC-1
How it was run: (§1)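 Relative viability divides the nuclei count in treated wells by that in vehicle wells. Lung cancer cell lines were seeded in 1536-well plates, dosed by pin tool the next day, and fixed and stained after 5 days in one step with final 0.05% Triton X-100, 1% formaldehyde and 1 ug/ml Hoechst. Dosing was a single drug or a fixed anchor-drug dose plus five library-drug doses (not always all listed) in √10 steps, and values are medians of duplicate plates imaged at 4×.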

NCI-H520 = system: NCI-H520
How it was run: as §1

RERF-LC-KJ = system: RERF-LC-KJ
How it was run: as §1

NCI-H647 = system: NCI-H647
How it was run: as §1

A-427 = system: A-427
How it was run: as §1

NCI-H2085 = system: NCI-H2085
How it was run: as §1

HARA = system: HARA
How it was run: as §1

NCI-H2126 = system: NCI-H2126
How it was run: as §1

SW 900 = system: SW 900
How it was run: as §1

LOU-NH91 = system: LOU-NH91
How it was run: as §1

BEN = system: BEN
How it was run: as §1

LCLC-103H = system: LCLC-103H
How it was run: as §1

NCI-H661 = system: NCI-H661
How it was run: as §1

NCI-H1651 = system: NCI-H1651
How it was run: as §1

NCI-H596 = system: NCI-H596
How it was run: as §1

NCI-H1944 = system: NCI-H1944
How it was run: as §1

NCI-H1666 = system: NCI-H1666
How it was run: as §1

NCI-H727 = system: NCI-H727
How it was run: as §1

NCI-H460 = system: NCI-H460
How it was run: as §1

NCI-H1734 = system: NCI-H1734
How it was run: as §1

NCI-H1975 = system: NCI-H1975
How it was run: as §1

NCI-H838 = system: NCI-H838
How it was run: as §1

Work on `Cc1csc(=NC2CCCCC2)n1/N=C/c1ccc(O)c(O)c1O` [MIM1] + Nc1ncn([C@H]2C[C@H](O)[C@@H](CO)O2)c(=O)n1 [Decitabine] (partner 2 µM) yielded a relative viability (ABC-1; first compound 0.2 µM) of 0.974, a relative viability (ABC-1; first compound 0.6325 µM) of 1.28 and a relative viability (ABC-1; first compound 2 µM) of 1.14. It also gave a relative viability (ABC-1; first compound 6.325 µM) of 0.944, a relative viability (ABC-1; first compound 20 µM) of 0.427 and a relative viability (NCI-H520; first compound 0.2 µM) of 0.574. It also gave a relative viability (NCI-H520; first compound 0.6325 µM) of 0.485, a relative viability (NCI-H520; first compound 2 µM) of 0.526 and a relative viability (NCI-H520; first compound 6.325 µM) of 0.43. It also gave a relative viability (NCI-H520; first compound 20 µM) of 0.284, a relative viability (RERF-LC-KJ; first compound 0.2 µM) of 0.624 and a relative viability (RERF-LC-KJ; first compound 0.6325 µM) of 0.652. It also gave a relative viability (RERF-LC-KJ; first compound 2 µM) of 0.377, a relative viability (RERF-LC-KJ; first compound 6.325 µM) of 0.301 and a relative viability (RERF-LC-KJ; first compound 20 µM) of 0.22. The relative viability (NCI-H647; first compound 0.2 µM) was 0.414, the relative viability (NCI-H647; first compound 0.6325 µM) was 0.364 and the relative viability (NCI-H647; first compound 2 µM) was 0.397. For the same compound, the relative viability (NCI-H647; first compound 6.325 µM) was 0.33, the relative viability (NCI-H647; first compound 20 µM) was 0.126 and the relative viability (A-427; first compound 0.2 µM) was 0.583. For the same compound, the relative viability (A-427; first compound 0.6325 µM) was 0.578, the relative viability (A-427; first compound 2 µM) was 0.572 and the relative viability (A-427; first compound 6.325 µM) was 0.541. For the same compound, the relative viability (A-427; first compound 20 µM) was 0.308, the relative viability (NCI-H2085; first compound 0.2 µM) was 0.539 and the relative viability (NCI-H2085; first compound 0.6325 µM) was 0.522. The relative viability (NCI-H2085; first compound 2 µM) was 0.516, the relative viability (NCI-H2085; first compound 6.325 µM) was 0.491 and the relative viability (NCI-H2085; first compound 20 µM) was 0.563. It also gave a relative viability (HARA; first compound 0.2 µM) of 0.529, a relative viability (HARA; first compound 0.6325 µM) of 0.722 and a relative viability (HARA; first compound 2 µM) of 0.697. The relative viability (HARA; first compound 6.325 µM) was 0.475, the relative viability (HARA; first compound 20 µM) was 0.204 and the relative viability (NCI-H2126; first compound 0.2 µM) was 0.659. The relative viability (NCI-H2126; first compound 0.6325 µM) was 0.628, the relative viability (NCI-H2126; first compound 2 µM) was 0.545 and the relative viability (NCI-H2126; first compound 6.325 µM) was 0.584. For the same compound, the relative viability (NCI-H2126; first compound 20 µM) was 0.488, the relative viability (SW 900; first compound 0.2 µM) was 0.345 and the relative viability (SW 900; first compound 0.6325 µM) was 0.482. The relative viability (SW 900; first compound 2 µM) was 0.486, the relative viability (SW 900; first compound 6.325 µM) was 0.31 and the relative viability (SW 900; first compound 20 µM) was 0.206. It also gave a relative viability (LOU-NH91; first compound 0.2 µM) of 0.787, a relative viability (LOU-NH91; first compound 0.6325 µM) of 0.788 and a relative viability (LOU-NH91; first compound 2 µM) of 0.644. For the same compound, the relative viability (LOU-NH91; first compound 6.325 µM) was 0.742, the relative viability (LOU-NH91; first compound 20 µM) was 0.458 and the relative viability (BEN; first compound 0.2 µM) was 0.811. The relative viability (BEN; first compound 0.6325 µM) was 0.547, the relative viability (BEN; first compound 2 µM) was 0.797 and the relative viability (BEN; first compound 6.325 µM) was 0.739. It also gave a relative viability (BEN; first compound 20 µM) of 0.317, a relative viability (LCLC-103H; first compound 0.2 µM) of 0.773 and a relative viability (LCLC-103H; first compound 0.6325 µM) of 0.778. The relative viability (LCLC-103H; first compound 2 µM) was 0.808, the relative viability (LCLC-103H; first compound 6.325 µM) was 0.666 and the relative viability (LCLC-103H; first compound 20 µM) was 0.367. For the same compound, the relative viability (NCI-H661; first compound 0.2 µM) was 0.496, the relative viability (NCI-H661; first compound 0.6325 µM) was 0.571 and the relative viability (NCI-H661; first compound 2 µM) was 0.577. For the same compound, the relative viability (NCI-H661; first compound 6.325 µM) was 0.416, the relative viability (NCI-H661; first compound 20 µM) was 0.284 and the relative viability (NCI-H1651; first compound 0.2 µM) was 0.608. It also gave a relative viability (NCI-H1651; first compound 0.6325 µM) of 0.524, a relative viability (NCI-H1651; first compound 2 µM) of 0.56 and a relative viability (NCI-H1651; first compound 6.325 µM) of 0.509. The relative viability (NCI-H1651; first compound 20 µM) was 0.306, the relative viability (NCI-H596; first compound 0.2 µM) was 1.09 and the relative viability (NCI-H596; first compound 0.6325 µM) was 1.1. For the same compound, the relative viability (NCI-H596; first compound 2 µM) was 0.831, the relative viability (NCI-H596; first compound 6.325 µM) was 0.84 and the relative viability (NCI-H596; first compound 20 µM) was 0.841. The relative viability (NCI-H1944; first compound 0.2 µM) was 0.399, the relative viability (NCI-H1944; first compound 0.6325 µM) was 0.467 and the relative viability (NCI-H1944; first compound 2 µM) was 0.403. It also gave a relative viability (NCI-H1944; first compound 6.325 µM) of 0.412, a relative viability (NCI-H1944; first compound 20 µM) of 0.355 and a relative viability (NCI-H1666; first compound 0.2 µM) of 0.714. It also gave a relative viability (NCI-H1666; first compound 0.6325 µM) of 0.741, a relative viability (NCI-H1666; first compound 2 µM) of 0.665 and a relative viability (NCI-H1666; first compound 6.325 µM) of 0.734. The relative viability (NCI-H1666; first compound 20 µM) was 0.467, the relative viability (NCI-H727; first compound 0.2 µM) was 0.994 and the relative viability (NCI-H727; first compound 0.6325 µM) was 0.818. It also gave a relative viability (NCI-H727; first compound 2 µM) of 0.841, a relative viability (NCI-H727; first compound 6.325 µM) of 0.879 and a relative viability (NCI-H727; first compound 20 µM) of 0.574. The relative viability (NCI-H460; first compound 0.2 µM) was 0.438, the relative viability (NCI-H460; first compound 0.6325 µM) was 0.479 and the relative viability (NCI-H460; first compound 2 µM) was 0.43. The relative viability (NCI-H460; first compound 6.325 µM) was 0.182, the relative viability (NCI-H460; first compound 20 µM) was 0.0456 and the relative viability (NCI-H1734; first compound 0.2 µM) was 0.458. The relative viability (NCI-H1734; first compound 0.6325 µM) was 0.492, the relative viability (NCI-H1734; first compound 2 µM) was 0.452 and the relative viability (NCI-H1734; first compound 6.325 µM) was 0.323. It also gave a relative viability (NCI-H1734; first compound 20 µM) of 0.178, a relative viability (NCI-H1975; first compound 0.2 µM) of 0.384 and a relative viability (NCI-H1975; first compound 0.6325 µM) of 0.385. It also gave a relative viability (NCI-H1975; first compound 2 µM) of 0.39, a relative viability (NCI-H1975; first compound 6.325 µM) of 0.216 and a relative viability (NCI-H1975; first compound 20 µM) of 0.137. The relative viability (NCI-H838; first compound 0.2 µM) was 0.468, the relative viability (NCI-H838; first compound 0.6325 µM) was 0.462 and the relative viability (NCI-H838; first compound 2 µM) was 0.513. For the same compound, the relative viability (NCI-H838; first compound 6.325 µM) was 0.394 and the relative viability (NCI-H838; first compound 20 µM) was 0.221.
